Target: MMP-13CD (catalytic domain of collagenase-3) (Homo sapiens, UniProt P45452)
Experiment: Thiopeptolide substrate hydrolysis inhibition assay, MMP-13CD
Format: biochemical
Conditions: Table I; thiopeptolide substrate, HEPES pH 7.0, 22° C.; read-out: MMP-13CD IC50
Description: Thiopeptolide substrates show virtually no decomposition or hydrolysis at or below neutral pH in the absence of a matrix metalloproteinase enzyme.

IC50 | Structure (SMILES)
74 nM | Cn1c(=O)n(CCOc2ccccc2)c(=O)c2cc(C(=O)OCc3ccccc3)sc21 [Example 132, 1-Methyl-2,4-dioxo-3-(2-phenoxy-ethyl)-1,2,3,4-tetrahydro-thieno[2,3-d]pyrimidine-6-carboxylic acid benzyl ester]
74 nM | Cn1c(=O)n(CCOc2ccccc2)c(=O)c2cc(C(=O)OCc3ccccc3)sc21 [Example 133, 1-Methyl-2,4-dioxo-3-(2-phenoxy-ethyl)-1,2,3,4-tetrahydro-thieno[2,3-d]pyrimidine-6-carboxylic acid benzyl ester]
1500 nM | CC(CO)Cn1c(=O)c2cc(C(=O)OCc3ccccc3)sc2n(C)c1=O (stereo not shown) [Example 134, 3-(3-Hydroxy-2-methyl-propyl)-1-methyl-2,4-dioxo-1,2,3,4-tetrahydro-thieno[2,3-d]pyrimidine-6-carboxylic acid benzyl ester]
280 nM | Cn1c(=O)n(CCCc2ccccc2)c(=O)c2cc(C(=O)OCc3ccccc3)sc21 [Example 143, 1-Methyl-2,4-dioxo-3-(3-phenyl-propyl)-1,2,3,4-tetrahydro-thieno[2,3-d]pyrimidine-6-carboxylic acid benzyl ester]
15000 nM | Cn1c(=O)n(Cc2ccccc2)c(=O)c2cc(C(=O)OCc3c(Cl)cccc3Cl)sc21 [Example 149, 3-Benzyl-1-methyl-2,4-dioxo-1,2,3,4-tetrahydro-thieno[2,3-d]pyrimidine-6-carboxylic acid 2,6-dichloro-benzyl ester]
13000 nM | CCCCOC(=O)c1cc2c(=O)n(Cc3ccccc3)c(=O)n(C)c2s1 [Example 150, 3-Benzyl-1-methyl-2,4-dioxo-1,2,3,4-tetrahydro-thieno[2,3-d]pyrimidine-6-carboxylic acid butyl ester]
> 100000 nM | Cn1c(=O)n(Cc2ccccc2)c(=O)c2cc(C(=O)OCC3COc4ccccc4O3)sc21 (stereo not shown) [Example 151, 3-Benzyl-1-methyl-2,4-dioxo-1,2,3,4-tetrahydro-thieno[2,3-d]pyrimidine-6-carboxylic acid 2,3-dihydro-1,4-benzodioxin-2-ylmethyl ester]
32000 nM | CC(C)c1ccc(COC(=O)c2cc3c(=O)n(Cc4ccccc4)c(=O)n(C)c3s2)cc1 [Example 154, 3-Benzyl-1-methyl-2,4-dioxo-1,2,3,4-tetrahydro-thieno[2,3-d]pyrimidine-6-carboxylic acid 4-isopropyl-benzyl ester]

The remaining lines, values behind:

Structure (SMILES) | IC50
Cn1c(=O)c2cc(C(=O)OCc3ccccc3)sc2n(C)c1=O [Example 127, 1,3-Dimethyl-2,4-dioxo-1,2,3,4-tetrahydro-thieno[2,3-d]pyrimidine-6-carboxylic acid benzyl ester] | 3900 nM
C=CCn1c(=O)c2cc(C(=O)OCc3ccccc3)sc2n(C)c1=O [Example 129, 3-Allyl-1-methyl-2,4-dioxo-1,2,3,4-tetrahydro-thieno[2,3-d]pyrimidine-6-carboxylic acid benzyl ester] | 160 nM
C#CCn1c(=O)c2cc(C(=O)OCc3ccccc3)sc2n(C)c1=O [Example 130, 1-Methyl-2,4-dioxo-3-prop-2-ynyl-1,2,3,4-tetrahydro-thieno[2,3-d]pyrimidine-6-carboxylic acid benzyl ester] | 97 nM
CC#CCn1c(=O)c2cc(C(=O)OCc3ccccc3)sc2n(C)c1=O [Example 131, 3-But-2-ynyl-1-methyl-2,4-dioxo-1,2,3,4-tetrahydro-thieno[2,3-d]pyrimidine-6-carboxylic acid benzyl ester] | 19 nM
CC(C)Cn1c(=O)c2cc(C(=O)OCc3ccccc3)sc2n(C)c1=O [Example 135, 3-Isobutyl-1-methyl-2,4-dioxo-1,2,3,4-tetrahydro-thieno[2,3-d]pyrimidine-6-carboxylic acid benzyl ester] | 86 nM
Cn1c(=O)n(Cc2ccc(Cl)nc2)c(=O)c2cc(C(=O)OCc3ccccc3)sc21 [Example 136, 3-(6-Chloro-pyridin-3-ylmethyl)-1-methyl-2,4-dioxo-1,2,3,4tetrahydro-thieno[2,3-d]pyrimidine-6-carboxylic acid benzyl ester] | 51 nM
Cn1c(=O)n(Cc2ccccc2CS(=O)(=O)c2ccccc2)c(=O)c2cc(C(=O)OCc3ccccc3)sc21 [Example 137, 3-(2-Benzenesulfonylmethyl-benzyl)-1-methyl-2,4-dioxo-1,2,3,4tetrahydro-thieno[2,3-d]pyrimidine-6-carboxylic acid benzyl ester] | 8300 nM
Cn1c(=O)n(Cc2cccc3ccccc23)c(=O)c2cc(C(=O)OCc3ccccc3)sc21 [Example 138, 1-Methyl-3-naphthalen-1-ylmethyl-2,4-dioxo-1,2,3,4-tetrahydro-thieno[2,3-d]pyrimidine-6-carboxylic acid benzyl ester] | 660 nM
Cn1c(=O)n(Cc2ccccc2C(F)(F)F)c(=O)c2cc(C(=O)OCc3ccccc3)sc21 [Example 139, 1-Methyl-2,4-dioxo-3-(2-trifluoromethyl-benzyl)-1,2,3,4-tetrahydro-thieno[2,3-d]pyrimidine-6-carboxylic acid benzyl ester] | 250 nM
Cn1c(=O)n(Cc2cccc(Cl)c2)c(=O)c2cc(C(=O)OCc3ccccc3)sc21 [Example 140] | 17 nM
CCn1c(=O)c2cc(C(=O)OCc3ccccc3)sc2n(C)c1=O [Example 142, 3-Ethyl-1-methyl-2,4-dioxo-1,2,3,4-tetrahydro-thieno[2,3-d]pyrimidine-6-carboxylic acid benzyl ester] | 390 nM
Cn1c(=O)n(CCS(=O)(=O)c2ccc(Cl)cc2)c(=O)c2cc(C(=O)OCc3ccccc3)sc21 [Example 144, 3-[2-(4-Chloro-benzenesulfonyl)-ethyl]-1-methyl-2,4-dioxo-1,2,3,4-tetrahydro-thieno[2,3-d]pyrimidine-6-carboxylic acid benzyl ester] | 3 nM
CC(=O)OCCn1c(=O)c2cc(C(=O)OCc3ccccc3)sc2n(C)c1=O [Example 145, 3-(2-Acetoxy-ethyl)-1-methyl-2,4-dioxo-1,2,3,4-tetrahydro-thieno[2,3-d]pyrimidine-6-carboxylic acid benzyl ester] | 1300 nM
Cn1c(=O)n(Cc2ccccc2)c(=O)c2cc(C(=O)OCCOc3ccccc3)sc21 [Example 146, 3-Benzyl-1-methyl-2,4-dioxo-1,2,3,4-tetrahydro-thieno[2,3-d]pyrimidine-6-carboxylic acid 2-phenoxyethyl ester] | 47000 nM
Cn1c(=O)n(Cc2ccccc2)c(=O)c2cc(C(=O)NCc3ccccc3)sc21 [Example 148, 3-Benzyl-1-methyl-2,4-dioxo-1,2,3,4-tetrahydro-thieno[2,3-d]pyrimidine-6-carboxylic acid benzyl amide] | 540 nM
CCN(CC)CC(C)OC(=O)c1cc2c(=O)n(Cc3ccccc3)c(=O)n(C)c2s1 (stereo not shown) [Example 152, 3-Benzyl-1-methyl-2,4-dioxo-1,2,3,4-tetrahydro-thieno[2,3-d]pyrimidine-6-carboxylic acid 2-diethylamino-1-methyl-ethyl ester] | 9900 nM
Cn1c(=O)n(Cc2ccccc2)c(=O)c2cc(C(=O)OCc3ccc(F)cc3)sc21 [Example 153, 3-Benzyl-1-methyl-2,4-dioxo-1,2,3,4-tetrahydro-thieno[2,3-d]pyrimidine-6-carboxylic acid 4-fluoro-benzyl ester] | 4 nM
